{"source": "patent US20250206779A1", "about": "“ANGIOTENSIN-(1-9) ANALOGUE BASED ON D AMINO ACIDS, PHARMACEUTICAL COMPOSITIONS AND USES THEREOF” (UNIVERSIDAD DE CHILE, priority 2021, published 2025)", "key": {"[1]": {"tested_on": "spontaneously hypertensive rats (SHR)", "assay": "Fibroblast proliferation in cardiac tissue of SHR, Ki67 immunohistochemistry", "assay_type": "in vivo, rat", "conditions": "SHR, 1,200 ng/kg/min, 14 days", "protocol": "(§1) Experimental animal model. All procedures were performed in accordance with the Guide for the Care and Use of Laboratory Animals published by the U.S. National Institutes of Health (NIH Publication 85 23, 1985) and approved by our Institutional Bioethics Committee. The animals were housed under the continuous professional monitoring of the Medical Veterinary staff in the animal facility of the Pontificia Universidad Católica de Chile, under the following conditions: 12-h light-dark cycle; 21° C. ambient temperature; 50% humidity; adequate ventilation; noise-free environment; and food and water ad libitum. […] Systolic blood pressure (SBP), diastolic blood pressure (DBP) and body weight (BW) were measured at the end of the treatment period and the animals were then sacrificed.\nImmunohistochemistry for Ki67. Proliferation of fibroblast, another marker of fibrosis, was assessed by measuring the presence of Ki-67 positive nuclei. […] Two blinder researchers counted manually positive cells in 10 high-power fields (×40). […] The percentage of positive Ki67 cells was calculated. As observed with the above cardiac fibrosis marker, collagen content assessed by picrosirius red staining, in hypertensive SHR, an increase in fibroblast with Ki-67 positive nuclei were found, confirming the occurrence of cardiac fibrosis."}, "[2]": {"tested_on": "spontaneously hypertensive rats (SHR)", "assay": "β-MHC protein level in left ventricle of SHR (cardiac hypertrophy)", "assay_type": "in vivo, rat", "conditions": "SHR, 1,200 ng/kg/min, 14 days, left ventricle western blot", "protocol": "as §1, with “libitum. Male spontaneously hypertensive rats (SHR, age 12 weeks) and normotensive Wistar Kyoto rats (WKY, 12 weeks age) were used.” for “libitum.”\nMeasurement of β-MHC protein level to assess cardiac hypertrophy. β-MHC protein levels were determined by Western blotting. […] Digital images obtained from the photographic films were analyzed by densitometry using Image J software (NIH, USA). […]"}}, "note": "Where a SMILES comes first, the peptide text is derived from it. [ ]: non-standard residue; d: D form."}
{"smiles": "CC[C@@H](C)[C@@H](NC(=O)[C@@H](Cc1c[nH]cn1)NC(=O)[C@H]1CCCN1C(=O)[C@@H](Cc1ccccc1)NC(=O)[C@H](N)Cc1c[nH]cn1)C(=O)N[C@H](Cc1ccc(O)cc1)C(=O)N[C@@H](C(=O)N[C@H](CCCNC(=N)N)C(=O)N[C@H](CC(=O)O)C(=O)O)C(C)C", "note": "[retro-inverse angiotensin-(1-9), NH2-^DH^DF^DP^DH^DI^DY^DV^DR^DD-COOH] (H-[dH][dF][dP][dH][dI][dY][dV][dR][dD]-OH)", "values": [{"measurement": "increase of fibroblast with Ki-67 positive nuclei induced by hypertension", "setting": "[1]", "result": "reversed the increase"}, {"measurement": "increase in β-MHC induced by hypertension", "setting": "[2]", "result": "reversed the increase"}]}
